The values that follow come from patent US20250339402A1, “EFFECTIVE MEANS TO MODULATE NMDA RECEPTOR-MEDIATED TOXICITY” (FUNDAMENTAL PHARMA GMBH, priority 2022, published 2025).

Structures are written as SMILES. “Also recorded” adds a separate entry of the source. Counter-ions that a name gives are not always drawn.

Assay [1] deals with Primary mouse hippocampal neurons. In words: Excitotoxic (glutamate/NMDA-induced) cell death in primary neuronal cultures, protection index. It is filed as cell-based. As to conditions: for IC50: Mus musculus, Hippocampal neuron, excitotoxic cell death in primary neuronal cultures. On the procedure:
(§1) Primary mouse hippocampal neurons were prepared as previously described (Bading & Greenberg, Science, 1991; 253: 912-914; Zhang et al, Neuron, 2007, 53: 549-562) and maintained in Neurobasal-A medium supplemented with 2% B27, 5 mM L-Glutamax, and 0.5% Penicillin/Streptomycin until challenged with NMDA on days in vitro (DIV) 10. Glutamate-induced cell death was analyzed in a real-time manner by monitoring nuclear localized mCherry with IncuCyte® S3 Live-Cell Analysis System (Sartorius AG, Germany). Primary neurons plated in 24 well plates were infected with rAAV-hSyn-mCherry on DIV3 and challenged with 1 μM or 20 μM glutamate on DIV10. All compounds were added to the culture 30 min prior to glutamate/NMDA insult. Images were acquired following the glutamate application for 24 h with a 2 h interval, where 9-16 images were obtained via a 20×objective for each condition at each time point. Cell deaths were quantified by analyzing the existence of nuclear localized mCheery via the Basic Analyzer with Incucyte® 2021 software, size and average intensity were used as exclusion criteria.
In order to evaluate the protective effects of various compounds, a quantification method was developed to determine each compound's protection index. The protection index (from 0.0 to 10.0) was calculated by the area above the curve (AAC) during a 24 h excitotoxic stimuli, where the cell survival was normalized to the 0 h (FIG. 2), following the equation: […]
Where AAC represents for each compound, AACbasal represents for the basal condition without excitotoxic insult, AACVeh represents for the vehicle control with excitotoxic insult. Based on the equation, vehicle (DMSO) has a protection index at 0.0 and compound P401 of WO 2020/079244 has a protection index at 6.0 (at 10 μM).
The inventors also performed experiments with Group A compounds at lower concentration in a 3-fold dilution matter ([…]: 3.0, 1.0, 0.3, 0.1, 0.03) and were able to achieve a similar protection effect as 10 μM compound P401, but at a lower concentration.

Assay [2] deals with Primary neurons. In words: Reactive oxygen species (H2O2) induced neuronal death in primary neurons. The assay is classed as cell-based, mouse. The following applies: 300 μM H2O2 on DIV10; compounds added 30 min before; FIG. 3. The method, then: as §1, with “Images were acquired following the glutamate application for 24 h with a 2 h interval, where 9-16 images were obtained via a 20×objective for each condition at each time point.” left out
Primary neurons plated in 24 well plates were infected with rAAV-hSyn-mCherry on DIV3 and challenged with 300 μM H2O2 on DIV10. […] Cell deaths were quantified by analyzing the existence of nuclear localized mCherry via the Basic Analyzer with Incucyte® 2021 software, size and average intensity were used as exclusion criteria.

Where [3] appears, read: first subset, protection index from area above curve over 24 h glutamate/NMDA insult, compounds added 30 min before, 10 μM, Group A also at lower concentrations.
[4] abbreviates: third subset, A++++ or above correlates with IC50, A++ and A+++ as defined in the source.
Setting [5] is: second subset, protection index from area above curve over 24 h glutamate/NMDA insult, compounds added 30 min before, 10 μM, Group A also at lower concentrations.

As to `CCN(CCN)Cc1cccc(Cl)c1` [Compound P401, (2-aminoethyl)[(3-chlorophenyl)methyl]ethylamine, reference compound], the “protection (cell survival after glutamate/NMDA treatment)” value in assay [1] (10 μM, primary cultured neurons, FIG. 2) was ~60%. The same compound had a protection index in assay [1] (at 10 μM, scale 0.0 to 10.0, vehicle (DMSO) = 0.0) of 6.0. Also, the “protection against H2O2 insult (cell survival)” value in assay [2] was “better protection against H2O2 insult compared to FDA-approved ALS drug Riluzole and Edaravone; also recorded: better protection against H2O2 insult than the FDA-approved ALS drug Riluzole and Edaravone”.
The term IC50 denotes the concentration that inhibits the measured activity by half. Read a high IC50 as a need for much substance. In assay [1] (third subset), `NCCN(C1CC1)C(c1cccc(Cl)c1F)C1CCC1` (centres unmarked) [Compound 267, N^1-((3-chloro-2-fluorophenyl)(cyclobutyl)methyl)-N^1-cyclopropylethane-1,2-diamine hydrochloride] came in with a half-inhibitory concentration (IC50) of 130 nM. In other words, the sub-micromolar range.
In the case of `CCN(CCN)Cc1cc(F)cc(Cl)c1` [Compound 94], the “Biological Activity Rating” value in assay [1] (setting [3]) is on record as “B (With a protection index between 5.0 to 7.0, provides a comparable protection to compound P401 (10 μM) at 10 μM.)”.
Consider `CC(c1cccc(Br)c1F)N(CCN)C1CCC1` (centres unmarked) [Compound 227B], for which the concentration for half-maximal inhibition (IC50) in assay [1] (third subset) turned out to be 300 nM. The “Biological Activity Rating” value in assay [1] (setting [4]) is given as “A+++”.
Turning to `CCN(CCN)C(C)c1cccc(Cl)c1` (centres unmarked) [Compound 109], the “Biological Activity Rating” value in assay [1] (setting [5]) is recorded as “A (With a protection index over 7.0, provides a significantly better protection over compound P401 (10 μM) at 10 μM.)”.
Compound `CC(c1c(F)ccc(Cl)c1F)N(CCN)C1CC1.Cl` (centres unmarked) [Compound 187] displayed an IC50 in assay [1] (third subset) of 2000 nM. Also, in assay [1] (setting [4]), the “Biological Activity Rating” value is “A++”.
For `NCCN(Cc1cccc(Cl)c1)C1CCC1` [Compound 123, N1-(3-chlorobenzyl)-N1-cyclobutylethane-1,2-diamine hydrochloride], in assay [1] (setting [3]), the “Biological Activity Rating” value is “B (With a protection index between 5.0 to 7.0, provides a comparable protection to compound P401 (10 μM) at 10 μM.)”.
On to `NCCN(Cc1cccc(Br)c1F)C1CC1` [Compound 219B], for which the IC50 in assay [1] (third subset) was 1450 nM. Further, the “Biological Activity Rating” value in assay [1] (setting [4]) is “A++”.
In the case of `NCCN(Cc1cccc(Cl)c1F)C1CCC1` [Compound 159, N1-(3-chloro-2-fluorobenzyl)-N1-cyclobutylethane-1,2-diamine dihydrochloride], in assay [1] (setting [3]), the “Biological Activity Rating” value is given as “A++ (With a protection index between 5.0 to 7.0, provides a comparable protection to compound P401 (10 μM) at 1.0 μM.)”.
`CC(C)C(c1cccc(C#N)c1F)N(CCN)C1CC1` (centres unmarked) [Compound 264, 3-(1-((2-aminoethyl)(cyclopropyl)amino)-2-methylpropyl)-2-fluorobenzonitrile TFA salt] had a concentration for half-maximal inhibition (IC50) in assay [1] (third subset) of 3 nM.
`CCC(c1cccc(Cl)c1F)N(CCN)C1CC(F)(F)C1` (centres unmarked) [Compound 248] returned an IC50 in assay [1] (third subset) of 120 nM.
On to `C=CCN(CCN)Cc1cccc(Cl)c1F` [Compound 160], for which the “Biological Activity Rating” value in assay [1] (setting [3]) is given as “A (With a protection index over 7.0, provides a significantly better protection over compound P401 (10 μM) at 10 μM.)”.
Turning to `NCCN(Cc1cccc(Cl)c1F)CC(F)(F)F` [Compound 119, N1-(3-chloro-2-fluorobenzyl)-N1-(2,2,2-trifluoroethyl)ethane-1,2-diamine], the “Biological Activity Rating” value in assay [1] (setting [3]) was “A (With a protection index over 7.0, provides a significantly better protection over compound P401 (10 μM) at 10 μM.)”.
In assay [1] (third subset), `NCCN(C1CC1)C(c1cccc(Cl)c1F)C1CC1` (centres unmarked) [Compound 190] returned an IC50 of 110 nM.
In the case of `CCN(CCN)[C@H](C)c1cccc(Cl)c1` [Compound 176, (R)—N1-(1-(3-chlorophenyl)ethyl)-N1-ethylethane-1,2-diamine dihydrochloride], the “Biological Activity Rating” value in assay [1] (setting [5]) is listed as “A (With a protection index over 7.0, provides a significantly better protection over compound P401 (10 μM) at 10 μM.)”.
In assay [1] (third subset), `CC(C)(F)C(c1cccc(C#N)c1F)N(CCN)C1CC1` (centres unmarked) [Compound 287, 3-[1-[2-aminoethyl(cyclopropyl)amino]-2-fluoro-2-methyl-propyl]-2-fluoro-benzonitrile TFA salt] returned a half-inhibitory concentration (IC50) of 3 nM.
On to `CC(c1cc(Cl)ccc1F)N(CCN)C1CC1` (centres unmarked) [Compound 243], for which, in assay [1] (third subset), the concentration for half-maximal inhibition (IC50) worked out at 300 nM. Also, the “Biological Activity Rating” value in assay [1] (setting [4]) was “A+++”.
Turning to `NCCN(Cc1cccc(Cl)c1F)CC1CC1` [Compound 153], the “Biological Activity Rating” value in assay [1] (setting [3]) is listed as “C (With a protection index between 3.0 to 5.0, provides a significantly lower protection compared to compound P401 (10 μM) at 10 μM.)”.
Compound `NCCN(C1CC1)C(c1cccc(Cl)c1F)C(F)(F)F` (centres unmarked) [Compound 263, N^1-(1-(3-chloro-2-fluorophenyl)-2,2,2-trifluoroethyl)-N^1-cyclopropylethane-1,2-diamine hydrochloride] returned a 50% inhibitory concentration (IC50) in assay [1] (third subset) of 255 nM.
Consider `CC(c1cccc(Cl)c1F)N(CCN)C12CC(C1)C2` (centres unmarked) [Compound 182, N1-(bicyclo[1.1.1]pentan-1-yl)-N1-(1-(3-chloro-2-fluorophenyl)ethyl)ethane-1,2-diamine hydrochloride], for which the “Biological Activity Rating” value in assay [1] (setting [5]) is “A+ (With a protection index between 5.0 to 7.0, provides a comparable protection to compound P401 (10 μM) at 3.0 μM.)”.
Regarding `N#Cc1cccc(CN(CCN)C2CC2)c1F` [Compound 219, 3-(((2-aminoethyl)(cyclopropyl)amino)methyl)-2-fluorobenzonitrile hydrochloride], in assay [1] (third subset), the IC50 is 480 nM. In addition, the “Biological Activity Rating” value in assay [1] (setting [4]) is on record as “A+++”.
On to `CCCN(CCN)C(CC)c1cccc(Cl)c1F` (centres unmarked) [Compound 262, N1-(1-(3-chloro-2-fluorophenyl)propyl)-N1-propylethane-1,2-diamine hydrochloride], for which 10 nM corresponded to half-maximal inhibition in assay [1] (third subset) (IC50).
Compound `CCC(c1cccc(Br)c1F)N(CCN)C1CC1` (centres unmarked) [Compound 258] came in with an IC50 in assay [1] (third subset) of 13 nM.
Regarding `C=CCC(c1cccc(Cl)c1F)N(CCN)C1CC1` (centres unmarked) [Compound 271A, N′-[1-(3-chloro-2-fluoro-phenyl)but-3-enyl]-N′-cyclopropyl-ethane-1,2-diamine TFA salt], in assay [1] (third subset), the midpoint of inhibition, the IC50, lay at 7 nM.
In the case of `CCN(CCN)Cc1cccc(Br)c1F` [Compound 175A], in assay [1] (setting [3]), the “Biological Activity Rating” value is reported as “A (With a protection index over 7.0, provides a significantly better protection over compound P401 (10 μM) at 10 μM.)”.
As to `CC(c1c(F)cccc1Cl)N(CCN)C1CC1` (centres unmarked) [Compound 186], the concentration for half-maximal inhibition (IC50) in assay [1] (third subset) came to 800 nM. Moreover, the “Biological Activity Rating” value in assay [1] (setting [4]) was “A+++”.
`CCC(c1cccc(C#N)c1F)N(CCN)C1CC1` (centres unmarked) [Compound 257, 3-(1-((2-aminoethyl)(cyclopropyl)amino)propyl)-2-fluorobenzonitrile hydrochloride]: the half-inhibitory concentration (IC50) in assay [1] (third subset) was determined as 11 nM.
`NCCN(C1CC1)C(c1cccc(Cl)c1F)C(F)F` (centres unmarked) [Compound 275, N1-(1-(3-chloro-2-fluorophenyl)-2,2-difluoroethyl)-N1-cyclopropylethane-1,2-diamine hydrochloride]: the midpoint of inhibition in assay [1] (third subset), the IC50, lay at 468 nM. In assay [1] (setting [4]), the “Biological Activity Rating” value is “A+++”.
In assay [1] (third subset), `C#Cc1cccc(C(C)N(CCN)C2CC2)c1F` (centres unmarked) [Compound 295, N′-cyclopropyl-N′-[1-(3-ethynyl-2-fluoro-phenyl)ethyl]ethane-1,2-diamine TFA salt] displayed an IC50 of 32 nM.
For `CCC(c1cccc(Cl)c1F)N(CCN)C1CC1` (centres unmarked) [Compound 224, N1-(1-(3-chloro-2-fluorophenyl)propyl)-N1-cyclopropylethane-1,2-diamine hydrochloride], the IC50 in assay [1] (third subset) is 26 nM. The IC50 values of the last two compounds are within 1.5-fold of each other.
On the same count and under the same terms, with `N#Cc1cccc(C(N(CCN)C2CC2)C(F)(F)F)c1F` (centres unmarked) [Compound 261, 3-[1-[2-aminoethyl(cyclopropyl)amino]-2,2,2-trifluoro-ethyl]-2-fluoro-benzonitrile hydrochloride] the figure was 109 nM.
For the compound `NCCN(Cc1cccc(Cl)c1F)CC(F)F` [Compound 118, N1-(3-chloro-2-fluorobenzyl)-N1-(2,2-difluoroethyl)ethane-1,2-diamine], in assay [1] (setting [3]), the “Biological Activity Rating” value was “C (With a protection index between 3.0 to 5.0, provides a significantly lower protection compared to compound P401 (10 μM) at 10 μM.)”.
